Reference: patent US10702531B2, “Pyrazolopyrimidine compound as PI3K inhibitor and use thereof” (Shenzhen Bo Li Jian Medicine Co., Ltd., priority 2016, dated 2020)

What was measured:
[1] = molecular target: T1, PI3Kδ kinase (p110δ/p85α) (Homo sapiens, UniProt O00329); assay: Activity of PI3Kδ kinase by ADP-Glo method; type: biochemical; conditions: 17 nM kinase, 50 μM PIP2, 25 μM ATP
T1 construct: purchased Millipore 14-604-K
Experimental: Activity of PI3Kδ kinase was tested by ADP-Glo method. ADP-Glo was obtained from Promega (#V9101). p110δ/p85α was obtained from Millipore (#14-604-K). The IC50 of each of the compounds was evaluated by testing the compound at 10 concentrations. The starting concentration was 1 μM, and then a 3-fold serial dilution was performed. Buffer solutions for the testing were 50 mM HEPES pH 7.5, 3 mM MgCl2, 1 mM EGTA, 100 mM NaCl, 0.03% CHAPS, and 2 mM DTT. The final concentration of the PI3Kδ kinase was 17 nM; the final concentration of PIP2 was 50 μM; and the final concentration of ATP was 25 μM.
1. Preparation of 10 μL of kinase reaction solution: 2.5 μL of test compound solution, 2.5 μL of kinase solution, and 5 μL of substrate solution were added to each well of a 384-well plate (Corning #4512).
2. The 384-well plate was covered and incubated at room temperature for 60 minutes.
3. 5 μL of reaction solution was transferred from each well to the wells of a new 384-well plate.
4. 5 μL of ADP-Glo reagent was added to the wells of the 384-well plate to terminate the reaction.
5. The 384-well plate was shaken gently on a shaking machine. 6. 10 μL of kinase detection reagent was added to each of the wells, followed by shaking for 1 minute and allowing to standing at room temperature for 30 minutes.
8. The luminescence values of the sample were read using Synegy. 9. Data were processed using Excel and was curve-fitted using XLFit software to obtain the IC50 value of each of the compounds (Table 1).

[2] = system: lymphoma cell SU-DHL-6; assay: CellTiter-Glo inhibition of proliferation of lymphoma cell SU-DHL-6; type: cell-based; conditions: Homo sapiens, 72 hours
Experimental: CellTiter-Glo testing method was used to test the inhibition of the proliferation of lymphoma cell SU-DHL-6 (ATCC, Catalog number: CRL-2959) by the compounds. The cell culture solution used in the test was RPMI1640 (Invitrogen, Catalog number: 11875-093). 10% fetal calf serum (Invitrogen, Catalog number: 10099-141) was used in the test.
100 μL of culture solution containing 15000 cells was distributed to wells of a 96-well plate (Corning #3903). The plate was placed in a carbon dioxide incubator overnight. 0.5 μL of the compound (which was prepared using DMSO to have eight continuous concentration gradients) to be tested was added to each of the wells the next day. Each concentration was set with two replicates, and a well without cell (blank control) and a DMSO-well (solvent control). After dosing, the cells were cultured at 37° C. in 5% CO2 atmosphere for 72 hours. At last, 100 μL of CellTiter-Glo agent (Promega, Catalog number: G7571) was added to each of the wells. Luminescence signal was detected using Flex Station3 (Molecular Devices), and the IC50 value of each of the compounds inhibiting cell proliferation was calculated using XLfit software (Table 1).

T1 sequence (O00329 whole entry): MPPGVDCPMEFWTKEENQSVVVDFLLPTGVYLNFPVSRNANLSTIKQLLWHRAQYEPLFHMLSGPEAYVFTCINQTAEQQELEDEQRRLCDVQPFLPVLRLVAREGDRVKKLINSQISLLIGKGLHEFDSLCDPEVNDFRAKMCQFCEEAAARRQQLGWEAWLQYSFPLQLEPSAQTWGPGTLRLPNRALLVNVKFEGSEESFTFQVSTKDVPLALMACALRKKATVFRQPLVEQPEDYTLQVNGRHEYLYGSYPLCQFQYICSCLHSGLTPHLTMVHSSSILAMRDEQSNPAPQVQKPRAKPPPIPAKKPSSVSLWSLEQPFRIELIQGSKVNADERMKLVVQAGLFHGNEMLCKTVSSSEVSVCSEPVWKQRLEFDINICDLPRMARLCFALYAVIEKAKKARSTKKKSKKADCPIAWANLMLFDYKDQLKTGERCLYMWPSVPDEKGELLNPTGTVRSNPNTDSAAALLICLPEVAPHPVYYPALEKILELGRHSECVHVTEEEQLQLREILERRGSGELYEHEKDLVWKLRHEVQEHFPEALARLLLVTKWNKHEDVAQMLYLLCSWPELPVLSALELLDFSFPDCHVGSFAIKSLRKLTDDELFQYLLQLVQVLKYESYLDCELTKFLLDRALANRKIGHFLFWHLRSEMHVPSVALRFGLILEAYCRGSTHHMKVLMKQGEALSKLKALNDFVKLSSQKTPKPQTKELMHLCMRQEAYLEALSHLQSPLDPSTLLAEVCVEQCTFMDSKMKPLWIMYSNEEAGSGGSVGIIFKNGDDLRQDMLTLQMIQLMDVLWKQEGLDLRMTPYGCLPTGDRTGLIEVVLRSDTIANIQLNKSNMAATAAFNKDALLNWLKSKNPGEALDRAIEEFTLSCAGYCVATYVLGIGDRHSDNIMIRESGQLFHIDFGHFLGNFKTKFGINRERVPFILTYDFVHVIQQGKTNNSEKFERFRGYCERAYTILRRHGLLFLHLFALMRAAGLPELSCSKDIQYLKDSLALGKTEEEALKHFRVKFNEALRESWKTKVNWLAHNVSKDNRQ
T1 sequence (P27986 whole entry partner): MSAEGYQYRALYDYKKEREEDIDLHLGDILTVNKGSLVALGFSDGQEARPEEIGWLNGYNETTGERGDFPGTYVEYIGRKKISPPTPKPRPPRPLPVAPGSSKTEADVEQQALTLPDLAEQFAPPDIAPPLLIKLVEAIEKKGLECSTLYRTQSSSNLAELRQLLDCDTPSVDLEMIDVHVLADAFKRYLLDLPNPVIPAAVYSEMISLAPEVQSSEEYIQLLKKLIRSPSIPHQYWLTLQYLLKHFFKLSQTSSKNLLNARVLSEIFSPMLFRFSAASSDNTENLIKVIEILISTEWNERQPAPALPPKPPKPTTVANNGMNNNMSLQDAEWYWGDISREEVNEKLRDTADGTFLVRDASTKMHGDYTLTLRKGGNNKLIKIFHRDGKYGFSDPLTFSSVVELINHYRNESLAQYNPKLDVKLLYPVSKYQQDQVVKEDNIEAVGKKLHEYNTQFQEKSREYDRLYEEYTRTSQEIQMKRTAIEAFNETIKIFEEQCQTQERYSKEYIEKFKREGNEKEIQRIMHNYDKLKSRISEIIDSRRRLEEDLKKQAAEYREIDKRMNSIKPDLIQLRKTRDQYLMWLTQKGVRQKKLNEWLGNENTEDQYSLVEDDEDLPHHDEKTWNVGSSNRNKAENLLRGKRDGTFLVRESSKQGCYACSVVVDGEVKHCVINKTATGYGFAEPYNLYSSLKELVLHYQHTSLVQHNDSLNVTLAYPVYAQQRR

Structure (SMILES) | IC50 [1] [µM] | IC50 [2] [µM]
C[C@H](Nc1ncnc(N)c1C#N)c1cn2ncc(Cl)c2nc1-c1cccc(F)c1 [Example 4, (S)-4-amino-6-(1-(3-chloro-5-(3-fluorophenyl)pyrazolo[1,5-a]pyrimidin-6-yl)ethylamino)pyrimidin-5-carbonitrile] | < 0.02 | 0.02 to 0.1
C[C@H](Nc1nc(N)nc(N)c1C#N)c1cn2ncc(Cl)c2nc1-c1cccc(F)c1 [Example 3, (S)-2,4-diamino-6-(1-(3-chloro-5-(3-fluorophenyl)pyrazolo[1,5-a]pyrimidin-6-yl)ethylamino)pyrimidin-5-carbonitrile] | < 0.02 | < 0.02

The remaining lines, values ahead:

IC50 [1] [µM] | IC50 [2] [µM] | Structure (SMILES)
< 0.02 | 0.02 to 0.1 | Cc1nc(N)nc(N[C@@H](C)c2cn3ncc(Cl)c3nc2-c2ccccc2)c1C#N [Example 5, (S)-2-amino-4-((1-(3-chloro-5-phenylpyrazolo[1,5-a]pyrimidin-6-yl)ethyl)amino)-6-methylpyrimidin-5-carbonitrile]
< 0.02 | < 0.02 | C[C@H](Nc1nc(N)nc(N)c1C#N)c1cn2ncc(Cl)c2nc1-c1ccccc1 [Example 2, (S)-2,4-diamino-6-(1-(3-chloro-5-phenylpyrazolo[1,5-a]pyrimidin-6-yl)ethylamino)pyrimidin-5-carbonitrile]
< 0.02 | 0.02 to 0.1 | C[C@H](Nc1ncnc(N)c1C#N)c1cn2ncc(Cl)c2nc1-c1ccccc1 [Example 1, (S)-4-amino-6-(1-(3-chloro-5-phenylpyrazolo[1,5-a]pyrimidin-6-yl)ethylamino) pyrimidin-5-carbonitrile]
